{
  "source": "patent US9623084B2",
  "about": "“Methods for treating multiple sclerosis” (UNIVERSITY OF SOUTHERN CALIFORNIA, priority 2013, dated 2017)",
  "key": {"[1]": {"tested_on": "MOG-EAE in C57BL/6 mice (chronic progressive model of MS)", "experiment": "A(1-7) treatment in the chronic progressive MOG-EAE model of MS", "assay_type": "in vivo", "conditions": "for disease course (clinical scores): vs control non-treated immunized mice, up to 50 days post immunization"}, "[2]": {"tested_on": "PLP-EAE in SJL/J mice (relapsing-remitting model of MS)", "experiment": "A(1-7) treatment in the relapsing-remitting PLP-EAE model of MS", "assay_type": "in vivo", "conditions": "FIG. 1C", "description": "Multiple Sclerosis (MS) is a chronic autoimmune and neurodegenerative disease of the central nervous system (CNS) that is characterized by focal infiltration of leukocytes, including myelin-specific T cells, into the CNS, resulting destruction of myelin, demyelination, oxidative stress, axonal loss and ultimately, clinical symptoms and neurological disability. Experimental autoimmune encephalomyelitis (EAE) is a well-established animal model of MS that mimics many of the features of MS. We evaluated the ability of angiotensin peptide A(1-7) to modulate EAE disease course. For this study we used two common EAE models to study the efficacy of A(1-7), one that replicates the chronic progressive form of MS and the other that follows a relapsing-remitting course of the disease. Mice were immunized with peptides corresponding to major immunodominant regions of two myelin proteins: myelin oligodendrocyte protein 35-55 (MOG-EAE) immunization in C57BL6 mice to induce a chronic progressive disease, or proteolipid protein 139-151 (PLP-EAE) immunization in SJL/J mice induced a relapsing-remitting disease.\nFemale SJL/J mice, 10-weeks-old, were immunized subcutaneously in 4 sites on their flank (approximately 50 μl each) with 120 μg PLP-139-151 peptide emulsified in 200 μl CFA at baseline. Mice were anesthetized (as described for MOG-EAE) for the immunizations. SJL/J mice are highly susceptible to EAE induction by this method and require only one immunization to achieve disease in 90-100% of mice.\nPLP-EAE is a relapsing form of disease in which the first acute attack of neurological symptoms occurs at approximately 10-13 days after immunization, peaks between day 15 and 18, is followed by a period of recovery, or remission for about 10 days. 25-40 days after immunization ˜75% of mice develop a second wave of paralysis (relapse). Relapses are often less severe and of shorter duration than the first attack. PLP-EAE mimics the relapsing-remitting form of MS. […]"}, "[3]": {"tested_on": "Normal human progenitor cells (neurosphere cultures)", "experiment": "A(1-7) treatment in in vitro neurosphere cultures", "assay_type": "cell-based", "method": "Normal human progenitor cells were purchased from Clonetics (San Diego, Calif.) and cultured in Neural Progenitor Cell Maintenance Medium (NPMM) [Neural Progenitor Basal Medium containing human recombinant fibroblast growth factor-beta, human recombinant epidermal growth factor, neural survival factors, gentamycin and amphotericin B)]. The cells were thawed, diluted into NPMM and cultured for 24 hours in a 75 cm^2 flask. Until studies to assess differentiation, the cells were cultured in dedifferentiated spheroids.\nIn order to assess the differentiation of neuronal cells, the cells were seeded upon wells coated with 0.05% polyethyleneimine (PEI) substrate in borate buffer solution. The wells of a 96 well plate were coated with 0.05 ml of this solution overnight at room temperature. After the incubation, the substrate was removed by aspiration, rinsed with sterile water and allowed to dry before seeding of cells. Four days after plating, the number of cells undergoing differentiation, as assessed by neurite outgrowth) was counted"}, "[4]": {"conditions": "treatment started 10 days after immunization, vs control non-treated immunized mice"}},
  "data": [
    {"substance": "Asp-Arg-Val-Tyr-Ile-His-Pro (DRVYIHP) [A(1-7), angiotensin peptide A(1-7)]", "values": [
      {"measurement": "disease progression and severity", "setting": "[1]; 1 mg/kg/day continuous delivery (Alzet pump) vs control, started day 11, FIG. 3", "result": "highly effective at inhibiting disease progression and maintaining reduced severity of the disease"},
      {"measurement": "restoration from disability", "setting": "[1]; 2 mg/kg/day continuous delivery vs control saline treated mice, FIG. 3 and FIG. 4A", "result": "promotes restoration from disability"},
      {"measurement": "clinical disease score", "setting": "[1]; all doses, twice daily injection, vs control saline treated mice, started day 11, FIG. 2", "result": "improved clinical disease score"},
      {"measurement": "disease course (clinical scores)", "setting": "[1]; once daily sc 0.5 mg/kg A(1-7) from day 10, FIG. 1A", "result": "less severe disease course"},
      {"measurement": "clinical disease score, dose comparison", "setting": "[1]; twice daily injection, total of 1.2 or 4 mg/kg/day vs 0.5 mg/kg/day, started day 11, FIG. 2", "result": "more effective in reducing clinical disease score than 0.5 mg/kg/day"},
      {"measurement": "disease course (clinical scores)", "setting": "[1]; twice daily sc 0.5 mg/kg A(1-7) from day 10, FIG. 1B", "result": "less severe disease course"},
      {"measurement": "disease course (disability) with duration of treatment", "setting": "[2]; PLP-EAE SJL mice, increasing duration of treatment", "result": "improves disease course (less disability) with increasing duration of treatment"},
      {"measurement": "disease severity", "setting": "[2]; [4]", "result": "the disease was less severe"},
      {"measurement": "onset of disease", "setting": "[2]; [4]", "result": "delayed onset of disease"},
      {"measurement": "neurite outgrowth and proliferation", "setting": "[3]; PEI-coated wells, counted four days after plating, increasing doses of A(1-7), FIG. 4", "result": "promotes neurite outgrowth and proliferation with increasing doses of A(1-7)"},
      {"measurement": "number of cells able to undergo differentiation (proliferation)", "setting": "[3]; suspension culture in the presence of A(1-7) for 4-7 days prior to placement on an adherent substrate", "result": "an increase in the number of cells able to undergo differentiation (proliferation)"}
    ]}
  ]
}
